# Test results: patent publication US20240190885A1, “KRAS PROTEIN DEGRADERS, PHARMACEUTICAL COMPOSITIONS THEREOF, AND THEIR THERAPEUTIC APPLICATIONS” (BioTheryX, Inc., priority 2021, published 2024)
# Assays:
# Assay type in all cases: cell-based
# H358 (G12C) cells = experiment: Cell viability assay (CELLTITER-GLO), H358 cells; conditions: Homo sapiens, NCI-H358, 72 h, 3 days, CELLTITER-GLO luminescence, read-out: Inhibition of Cancerous Cells IC50 H358 (G12C)
# Experimental: (§1) H358 and SW48 cells were cultured in RPMI 1640 media supplemented with 10% fetal bovine serum, streptomycin, and penicillin. Lovo and SW480 cells were cultured in DMEM media supplemented with 10% fetal bovine serum, streptomycin, and penicillin. The cell lines were plated in their respective medium supplemented with 2.5% fetal bovine serum, streptomycin, and penicillin. All cell lines were plated in white walled 96-well plates at 2,000 cells/well or 384-well plates at 500 cells/well, except Lovo, which were plated at 4,000 or 1,000 cells/well, respectively. The cells were incubated in DMSO (control) or a compound for 3 days at 37° C. under 5% CO2. A CELLTITER-GLO® reagent (100 μL) was then added to each well. After a 10 min incubation with shaking, luminescence was measured using an ENVISION® multimode plate reader.
# SW480 (G12V) cells = experiment: Cell viability assay (CELLTITER-GLO), SW480 cells; conditions: Homo sapiens, 72 h, 3 days, CELLTITER-GLO luminescence, read-out: Inhibition of Cancerous Cells IC50 SW480 (G12V)
# Experimental: as §1
# KRAS = biological target: T1, KRAS (Homo sapiens, UniProt P01116); experiment: Protein degradation assay (western blot) in HEK293 cells; conditions: 6 h; for percent KRAS protein degradation at 3 µM: compound 3 μM; for KRAS Protein Degradation (%) 5 μM: compound 5 μM
# T1 construct: Whole cell extracts were prepared using an immunoprecipitation (IP) lysis buffer; endogenous in cells; host or cells: HEK293
# Experimental: HEK293 cells were grown in RPMI 1640 media supplemented with 10% fetal bovine serum, streptomycin, and penicillin. The cells were plated in 24-well plates in the growth media. The cells were then treated with a compound at indicated concentrations for 6 h. Whole cell extracts were prepared using an immunoprecipitation (IP) lysis buffer. Briefly, the cells were washed once in PBS, and the cell pellets were resuspended in the IP lysis buffer and incubated for 15 min on ice. Cell debris was removed by centrifugation and the cleared whole cell lysates were transferred to new tubes for further analysis.
# For a western blot analysis, the whole cell protein extracts were separated on 4-12% SDS-polyacrylamide gels, transferred to nitrocellulose, and probed with primary antibodies. The nitrocellulose is subsequently washed and probed with IRDYE® secondary antibodies. The signals were detected using an ODYSSEY® Imaging System. The antibodies used in the assay included anti-KRAS; […] mouse monoclonal antibody; IRDYE® 680RD goat anti-rabbit antibody; and IRDYE® 800CW goat anti-mouse antibody.
# Lovo (G13D) cells = experiment: Cell viability assay (CELLTITER-GLO), Lovo cells; conditions: Homo sapiens, 72 h, 3 days, CELLTITER-GLO luminescence, read-out: Inhibition of Cancerous Cells IC50 Lovo (G13D)
# Experimental: as §1
# SW48 (wt) cells = experiment: Cell viability assay (CELLTITER-GLO), SW48 cells; conditions: Homo sapiens, 72 h, 3 days, CELLTITER-GLO luminescence, read-out: Inhibition of Cancerous Cells IC50 SW48 (wt)
# Experimental: as §1
# T1 sequence (P01116 1-188 isoform P01116-2): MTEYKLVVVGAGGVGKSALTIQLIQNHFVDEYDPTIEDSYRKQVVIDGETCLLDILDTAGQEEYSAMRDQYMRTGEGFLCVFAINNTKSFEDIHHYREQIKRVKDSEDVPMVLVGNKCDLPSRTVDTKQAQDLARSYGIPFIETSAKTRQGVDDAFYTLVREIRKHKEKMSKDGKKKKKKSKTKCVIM
SMILES,IC50 (H358 (G12C) cells),IC50 (SW480 (G12V) cells),percent KRAS protein degradation at 3 µM (KRAS),KRAS Protein Degradation (%) 5 μM (KRAS),IC50 (Lovo (G13D) cells),IC50 (SW48 (wt) cells)
"Cc1nn2c(N3CCN(CCO)CC3)cc(-c3cccc(CCCCCCCCCNC(=O)CC45CC6CC(CC(C6)C4)C5)c3)nc2c1-c1ccccc1 [Compound A1, 2-(adamantan-1-yl)-N-(9-(3-(7-(4-(2-hydroxyethyl)piperazin-1-yl)-2-methyl-3-phenylpyrazolo[1,5-a]pyrimidin-5-yl)phenyl)nonyl)acetamide]",7800 nM,> 10000 nM,7%,27%,4500 nM,5000 nM
"Cc1nn2c(N3CCN(CCO)CC3)cc(-c3cccc(CCOCCNC(=O)CC45CC6CC(CC(C6)C4)C5)c3)nc2c1-c1ccccc1 [Compound A4, 2-(adamantan-1-yl)-N-(2-(3-(7-(4-(2-hydroxyethyl)piperazin-1-yl)-2-methyl-3-phenylpyrazolo[1,5-a]pyrimidin-5-yl)phenethoxy)ethyl)acetamide]",1600 nM,1200 nM,20%,51%,880 nM,1300 nM
"Cc1nn2c(N3CCN(CCO)CC3)cc(-c3cccc(C#CCCCCCCCOC(=O)CC45CC6CC(CC(C6)C4)C5)c3)nc2c1-c1ccccc1 [Compound A5, 9-(3-(7-(4-(2-hydroxyethyl)piperazin-1-yl)-2-methyl-3-phenylpyrazolo[1,5-a]pyrimidin-5-yl)phenyl)non-8-yn-1-yl 2-(adamantan-1-yl)acetate]",> 10000 nM,> 10000 nM,4%,18%,> 10000 nM,> 10000 nM
"Cc1nn2c(N3CCN(CCO)CC3)cc(-c3cccc(CCCCCCCCCOC(=O)CC45CC6CC(CC(C6)C4)C5)c3)nc2c1-c1ccccc1 [Compound A6, 9-(3-(7-(4-(2-hydroxyethyl)piperazin-1-yl)-2-methyl-3-phenylpyrazolo[1,5-a]pyrimidin-5-yl)phenyl)nonyl 2-(adamantan-1-yl)acetate]",> 10000 nM,> 10000 nM,10%,28%,> 10000 nM,> 10000 nM
"Cc1nn2c(N3CCN(CCO)CC3)cc(-c3ccccc3)nc2c1-c1ccccc1 [drawing 105, reference compound]",3300 nM,1400 nM,,,2600 nM,2700 nM

# Further lines, results first:
IC50 (H358 (G12C) cells),IC50 (SW480 (G12V) cells),percent KRAS protein degradation at 3 µM (KRAS),KRAS Protein Degradation (%) 5 μM (KRAS),IC50 (Lovo (G13D) cells),IC50 (SW48 (wt) cells),SMILES
1700 nM,840 nM,20%,54%,1200 nM,1400 nM,"Cc1nn2c(N3CCN(CCO)CC3)cc(-c3cccc(CCNC(=O)CC45CC6CC(CC(C6)C4)C5)c3)nc2c1-c1ccccc1 [Compound A2, 2-(adamantan-1-yl)-N-(3-(7-(4-(2-hydroxyethyl)piperazin-1-yl)-2-methyl-3-phenylpyrazolo[1,5-a]pyrimidin-5-yl)phenethyl)acetamide]"
3300 nM,1200 nM,0%,0%,980 nM,1400 nM,"Cc1nn2c(N3CCN(CCO)CC3)cc(-c3cccc(CCOCCOC(=O)CC45CC6CC(CC(C6)C4)C5)c3)nc2c1-c1ccccc1 [Compound A3, 2-(3-(7-(4-(2-hydroxyethyl)piperazin-1-yl)-2-methyl-3-phenylpyrazolo[1,5-a]pyrimidin-5-yl)phenethoxy)ethyl 2-(adamantan-1-yl)acetate]"
> 10000 nM,2200 nM,0%,0%,3400 nM,4500 nM,"Cc1nn2c(N3CCN(CCO)CC3)cc(-c3ccccc3)nc2c1-c1cccc(CCCCCCCCCNC(=O)CC23CC4CC(CC(C4)C2)C3)c1 [Compound C2, 2-(Adamantan-1-yl)-N-(9-(3-(7-(4-(2-hydroxyethyl)piperazin-1-yl)-2-methyl-5-phenylpyrazolo[1,5-a]pyrimidin-3-yl)phenyl)nonyl)acetamide]"
,,0%,,,,"Cc1nn2c(N3CCN(CCO)CC3)cc(-c3ccccc3)nc2c1-c1ccccc1 [drawing 106, reference compound]"
